Results reported in US9968585B2, “Prevention or treatment agent for cerebral amyloid beta storage diseases” (TOYAMA CHEMICAL CO., LTD., priority 2014, dated 2018).

Key:
[1] = test system: patient with complication of AZD and CAA; assay: Clinical case, Example 1: patient with complication of AZD and CAA; assay type: in vivo, human
Source text: Patient
Family history: […] died of cerebral hemorrhage (type unknown) in his 50s. […]
Past history: deep white matter lesions (diagnosed by head MRI, T2-WI), lateral ventricular low density area (diagnosed by head CT), and moderate cerebral atrophy in the cerebral cortex including the hippocampus, parietal lobe, and frontal lobe and mild disturbance of memorization had been observed. However, there was no particular problem in everyday life.
History of present illness: person, walking difficulty (decreased speed and decreased stability of walking) appeared and then progressed slowly. Continuous walking of long distances of 600 m or more and walking with a heavy load (10 kg or more) in their hand or on their shoulder became difficult. Short-stepped gait and frontal gait appeared sometimes, with no fall. Cerebrovascular disorder was suspected and examinations by CT and MRI (other than T2-WI) were conducted. However, any responsible lesions, which were likely to develop relatively rapid walking difficulties, were not found, other than deep white matter lesions and moderate cerebral atrophy, which were observed previously. Parkinson's disease (syndrome) was also suspected and a therapeutic agent for the disease was temporarily administered, which was stopped because of the lack of efficacy. […] Instability of walking also progressed relatively rapidly and it became difficult to walk outdoor without a walking stick.
Meanwhile, MRI (T1/2WI, T2-WI) detected multiple micro-bleeding mainly in the area from bilateral basal ganglia (thalamus and hypothalamus) to upper brain stem and the patient was diagnosed with CAA. The patient was also diagnosed with AZD based on diffuse cerebral atrophy including hippocampus and a wide range of cerebral cortex and moderate dementia. […]
For walking, an assistance, or at least handrail, became always necessary and continuous walking of distances of 50 m or more became difficult (unstable) even with an assistance. Furthermore, the patient was frequently found in a somnolence state even in the daytime and occasional decrease in the level of consciousness during meal caused difficulty in swallowing. Standing and walking became impossible during a period of repeated high fever. Chest CT detected a sign of aspiration pneumonia and the patient was admitted to a nearby hospital.
Immediately after the hospitalization, administration of antibiotics against the pulmonary inflammatory disease was started and high dose administration of mineralocorticoid (200 mg injection of Hydrocortone/day, for 7 days in plan) was also started for the purpose of steroid supplementation against the potential hypoadrenalism (mineral imbalance), due to the previous sustained steroid (5 mg) therapy. […] On Day 9 after the hospitalization, the patient became almost bedridden and nonresponsive. On Day 10 after the hospitalization, administration of a high dose of glucocorticoid (30 mg/day of Predonine) for anti-inflammatory effect was therefore started for the purpose of ameliorating the cerebral hypofunction, based on the informed consent.
However, from Day 20 after the hospitalization, a somnolence tendency appeared again and the symptoms of decline of cognitive ability, inability to walk, lack of speech, urine incontinence, apraxia and agnosia appeared again.
Since no tendency to alleviate the symptoms was observed, on Day 22 after the hospitalization, administration of 25 mg of iguratimod (for example, the trade name “Kolbet” produced and sold as an antirheumatic drug by Taisho Toyama Pharmaceutical Co., Ltd. or the trade name “Careram” produced and sold by Eisai Co., Ltd.), in addition to the high dose glucocorticoid therapy, was started for the purpose of ameliorating cognitive impairment, walking impairment, decrease of energy and spontaneity, and aphasia, apraxia, and agnosia, based on the informed consent. […]

[2] = compared with MTX and SASP; cited from earlier work
[3] = test system: patient with moderate dementia caused by AZD; assay: Clinical case, Example 2: patient with moderate dementia caused by AZD, not associated with CAA; assay type: in vivo, human
Procedure: A person became indifferent to social activities and meeting people 3 to 4 years ago. Cognitive impairment appeared to the degree to cause difficulty in daily life activities 2 years ago. One year ago, cognitive impairment further progressed and MMSE was conducted to get scores of 14 or less. Since a head imaging detected moderate atrophy in the cerebral cortex including the parietal lobe and the hippocampus, the patient was diagnosed with “moderate dementia caused by AZD” based on the clinical and brain imaging observations. In the everyday life, disturbance of memorization was observed, in which the patient forgot contents of conversation in 5 minutes and purchased the same thing repeatedly when they went out alone. The patient liked cooking previously, but became unable to cook or adjust the taste. […] The patient became unable to manage own medication such as an antihypertensive agent (cognitive impairment on table and calculation) and management by a family member became necessary. Since efficacy (suppression of progressive symptoms) of a conventional drug against AZD was not observed for a half year or more, the administration of iguratimod at 25 mg/day was started, based on the informed consent to the patient and their family, and the dose was increased to 50 mg/day 4 weeks later.

[4] = test system: production of interleukin-1 and 6 (IL-1/6) and tumor necrosis factor (TNFα) from monocyte lineage cells (macrophages); settings: in inflammation; cited from earlier work
[5] = 6 months after starting the administration
[6] = at discharge, 2 months after starting the administration

C[C@]12CCC(=O)C=C1CC[C@@H]1[C@@H]2[C@@H](O)C[C@@]2(C)[C@H]1CC[C@]2(O)C(=O)CO [Hydrocortone]
neurological symptoms (energy, speech, cognitive function, walking ability) ([1]; 200 mg injection/day, from 3 days after the start of the steroid replacement therapy): increase in energy and speech, amelioration of cognitive function, and improvement of walking ability were observed | neurological symptoms ([1]; 200 mg injection/day, from Day 5 to 6 after the start of administration): the symptoms gradually aggravated

CS(=O)(=O)Nc1cc2occ(NC=O)c(=O)c2cc1Oc1ccccc1 [iguratimod, N-(3-formamido-4-oxo-6-phenoxy-4H-chromen-7-yl) methanesulfonamide]
efficacy in rheumatoid arthritis [2]: efficacy equivalent to MTX and SASP | continuous walking distance with an assistance [1, 5]: about 100 m | steps of stairs walked up with an assistance and use of handrail [1, 5]: 15 steps | head MRI: novel vascular abnormality or progression of cerebral atrophy ([1]; 6 months after starting the administration, compared with MRI before starting): did not detect any appearance of novel vascular abnormality or progression of cerebral atrophy | head imaging by 3T-MRI:SWI: progression of cerebral atrophy and other lesions ([1]; 7 months and 19 months after the beginning of iguratimod): the progression of cerebral atrophy and other lesions was not apparent | eating behavior ([1]; a half year after starting the administration): able to have meals by oneself using chopsticks | continuous walking distance with an assistance [1, 6]: about 50 m | steps of stairs walked up with an assistance at both arms [1, 6]: 8 steps | spontaneity and neurological symptoms ([1]; iguratimod 25 mg added to high dose glucocorticoid, 2 days after starting the administration): apparent amelioration of spontaneity was observed | mini-mental state examination (MMSE) score ([1]; one year after starting oral administration, score before starting 10 or less (severe dementia)): ≥ 10 | symptoms after steroid agent stopped completely ([1]; one year after starting the administration of iguratimod): no aggravation of symptoms | head imaging: progression of cerebral atrophy ([3]; 5 months after starting the administration): the progression of cerebral atrophy was not observed | Scores of MMSE ([3]; 5 months after starting the administration, scores one year before 14 or less): ≥ 17 | symptoms in daily life ([3]; iguratimod 25 mg/day, 50 mg/day after 4 weeks, 3 months after starting the administration): symptoms such as getting lost and failing to go home and purchasing the same thing repeatedly had disappeared | effect on production of IL-1/6 and TNFα from monocyte lineage cells (macrophages) [4]: suppressing effects

C[C@]12C=CC(=O)C=C1CC[C@@H]1[C@@H]2[C@@H](O)C[C@@]2(C)[C@H]1CC[C@]2(O)C(=O)CO [Predonine]
neurological symptoms (somnolence, energy, speech, walking, meals) ([1]; high dose glucocorticoid (30 mg/day of Predonine) started on Day 10 after hospitalization): alleviated a neurological symptom (decrease in somnolence), increased energy and speech | prevention of progression of the symptoms ([1]; sustained glucocorticoid therapy at maximum dose for the patient's age, for 10 days or more, symptoms reappeared from Day 20 after hospitalization): cannot prevent the progression of the symptoms
